# Experimental data published in the supplement of paper PMC10307832.
# Key:
# Assay in all cases: relative viability (nuclei count vs DMSO), 5 days (fraction); higher = more cells survive
# BI-2536 + Olaparib = compound: CC[C@@H]1C(=O)N(C)c2cnc(Nc3ccc(C(=O)NC4CCN(C)CC4)cc3OC)nc2N1C1CCCC1 [BI-2536] + O=C(c1cc(Cc2n[nH]c(=O)c3ccccc23)ccc1F)N1CCN(C(=O)C2CC2)CC1 [Olaparib] (partner 8 µM)
# In short: (§1)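 Relative viability is defined as nuclei in treated wells over nuclei in vehicle wells. Duplicate plates were run and medians reported. Lung cancer cell lines in 1536-well plates were dosed by pin tool one day after seeding, with one drug or with a fixed anchor-drug dose plus five library-drug doses (not always all listed) in √10 steps, and nuclei were counted after 5 days.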
# BI-2536 + Tozasertib = compound: CC[C@@H]1C(=O)N(C)c2cnc(Nc3ccc(C(=O)NC4CCN(C)CC4)cc3OC)nc2N1C1CCCC1 [BI-2536] + Cc1cc(Nc2cc(N3CCN(C)CC3)nc(Sc3ccc(NC(=O)C4CC4)cc3)n2)n[nH]1 [Tozasertib] (partner 0.1 µM)
# In short: as §1
# [1] = compound: CC1CC(=O)N(C2=CN=C(N=C2N1C3CCCC3)NC4=C(C=C(C=C4)C(=O)NC5CCN(CC5)C)OC)C [NPK76-II-72-1] + O=C(CCCCCCC(=O)Nc1ccccc1)NO [Vorinostat] (partner 1 µM)
# In short: as §1
# BI-2536 + Luminespib = compound: CC[C@@H]1C(=O)N(C)c2cnc(Nc3ccc(C(=O)NC4CCN(C)CC4)cc3OC)nc2N1C1CCCC1 [BI-2536] + CCNC(=O)c1noc(-c2cc(C(C)C)c(O)cc2O)c1-c1ccc(CN2CCOCC2)cc1 [Luminespib] (partner 0.01 µM)
# In short: as §1
cell line,measurement,setting,value
NCI-H522,relative viability,BI-2536 + Olaparib; first compound 0.01 µM,0.655
same,relative viability,BI-2536 + Olaparib; first compound 0.03162 µM,0.594
same,relative viability,BI-2536 + Olaparib; first compound 0.1 µM,0.689
same,relative viability,BI-2536 + Olaparib; first compound 0.3162 µM,0.364
same,relative viability,BI-2536 + Olaparib; first compound 1 µM,0.316
same,relative viability,BI-2536 + Tozasertib; first compound 0.01 µM,0.488
same,relative viability,BI-2536 + Tozasertib; first compound 0.03162 µM,0.581
same,relative viability,BI-2536 + Tozasertib; first compound 0.1 µM,0.634
same,relative viability,BI-2536 + Tozasertib; first compound 0.3162 µM,0.447
same,relative viability,BI-2536 + Tozasertib; first compound 1 µM,0.412
same,relative viability,[1]; first compound 0.01 µM,0.736
same,relative viability,[1]; first compound 0.03162 µM,0.902
same,relative viability,[1]; first compound 0.1 µM,0.995
same,relative viability,[1]; first compound 1 µM,0.79
same,relative viability,BI-2536 + Luminespib; first compound 0.01 µM,1.21
same,relative viability,BI-2536 + Luminespib; first compound 0.03162 µM,1.08
same,relative viability,BI-2536 + Luminespib; first compound 0.1 µM,1.04
same,relative viability,BI-2536 + Luminespib; first compound 0.3162 µM,0.375
same,relative viability,BI-2536 + Luminespib; first compound 1 µM,0.318
HCC-15,relative viability,BI-2536 + Olaparib; first compound 0.01 µM,0.612
same,relative viability,BI-2536 + Olaparib; first compound 0.03162 µM,0.557
same,relative viability,BI-2536 + Olaparib; first compound 0.1 µM,0.343
same,relative viability,BI-2536 + Olaparib; first compound 0.3162 µM,0.163
same,relative viability,BI-2536 + Olaparib; first compound 1 µM,0.144
same,relative viability,BI-2536 + Tozasertib; first compound 0.01 µM,0.461
same,relative viability,BI-2536 + Tozasertib; first compound 0.03162 µM,0.389
same,relative viability,BI-2536 + Tozasertib; first compound 0.1 µM,0.195
same,relative viability,BI-2536 + Tozasertib; first compound 0.3162 µM,0.14
same,relative viability,BI-2536 + Tozasertib; first compound 1 µM,0.108
same,relative viability,[1]; first compound 0.01 µM,0.785
same,relative viability,[1]; first compound 0.03162 µM,0.914
same,relative viability,[1]; first compound 0.1 µM,0.814
same,relative viability,[1]; first compound 0.3162 µM,0.767
same,relative viability,[1]; first compound 1 µM,0.91
same,relative viability,BI-2536 + Luminespib; first compound 0.01 µM,0.265
same,relative viability,BI-2536 + Luminespib; first compound 0.03162 µM,0.339
same,relative viability,BI-2536 + Luminespib; first compound 0.1 µM,0.144
same,relative viability,BI-2536 + Luminespib; first compound 0.3162 µM,0.116
same,relative viability,BI-2536 + Luminespib; first compound 1 µM,0.134
A-427,relative viability,BI-2536 + Olaparib; first compound 0.01 µM,0.727
same,relative viability,BI-2536 + Olaparib; first compound 0.03162 µM,0.593
same,relative viability,BI-2536 + Olaparib; first compound 0.1 µM,0.385
same,relative viability,BI-2536 + Olaparib; first compound 0.3162 µM,0.191
same,relative viability,BI-2536 + Olaparib; first compound 1 µM,0.176
same,relative viability,BI-2536 + Tozasertib; first compound 0.01 µM,0.187
same,relative viability,BI-2536 + Tozasertib; first compound 0.03162 µM,0.211
same,relative viability,BI-2536 + Tozasertib; first compound 0.1 µM,0.189
same,relative viability,BI-2536 + Tozasertib; first compound 0.3162 µM,0.15
same,relative viability,BI-2536 + Tozasertib; first compound 1 µM,0.146
same,relative viability,[1]; first compound 0.01 µM,0.824
same,relative viability,[1]; first compound 0.03162 µM,0.856
same,relative viability,[1]; first compound 0.1 µM,0.877
same,relative viability,[1]; first compound 0.3162 µM,0.855
same,relative viability,[1]; first compound 1 µM,0.883
same,relative viability,BI-2536 + Luminespib; first compound 0.01 µM,0.841
same,relative viability,BI-2536 + Luminespib; first compound 0.03162 µM,0.829
same,relative viability,BI-2536 + Luminespib; first compound 0.1 µM,0.525
same,relative viability,BI-2536 + Luminespib; first compound 0.3162 µM,0.144
same,relative viability,BI-2536 + Luminespib; first compound 1 µM,0.137
NCI-H2228,relative viability,BI-2536 + Olaparib; first compound 0.01 µM,0.596
same,relative viability,BI-2536 + Olaparib; first compound 0.03162 µM,0.553
same,relative viability,BI-2536 + Olaparib; first compound 0.1 µM,0.141
same,relative viability,BI-2536 + Olaparib; first compound 0.3162 µM,0.118
same,relative viability,BI-2536 + Olaparib; first compound 1 µM,0.123
same,relative viability,BI-2536 + Tozasertib; first compound 0.01 µM,0.285
same,relative viability,BI-2536 + Tozasertib; first compound 0.03162 µM,0.195
same,relative viability,BI-2536 + Tozasertib; first compound 0.1 µM,0.187
same,relative viability,BI-2536 + Tozasertib; first compound 0.3162 µM,0.139
same,relative viability,BI-2536 + Tozasertib; first compound 1 µM,0.11
same,relative viability,[1]; first compound 0.01 µM,0.543
same,relative viability,[1]; first compound 0.03162 µM,0.608
same,relative viability,[1]; first compound 0.1 µM,0.587
same,relative viability,[1]; first compound 0.3162 µM,0.589
same,relative viability,[1]; first compound 1 µM,0.578
same,relative viability,BI-2536 + Luminespib; first compound 0.01 µM,0.161
same,relative viability,BI-2536 + Luminespib; first compound 0.03162 µM,0.179
same,relative viability,BI-2536 + Luminespib; first compound 0.1 µM,0.183
same,relative viability,BI-2536 + Luminespib; first compound 0.3162 µM,0.145
same,relative viability,BI-2536 + Luminespib; first compound 1 µM,0.124
NCI-H1734,relative viability,BI-2536 + Olaparib; first compound 0.01 µM,0.605
same,relative viability,BI-2536 + Olaparib; first compound 0.03162 µM,0.618
same,relative viability,BI-2536 + Olaparib; first compound 0.1 µM,0.254
same,relative viability,BI-2536 + Olaparib; first compound 0.3162 µM,0.176
same,relative viability,BI-2536 + Olaparib; first compound 1 µM,0.153
same,relative viability,BI-2536 + Tozasertib; first compound 0.01 µM,0.251
same,relative viability,BI-2536 + Tozasertib; first compound 0.03162 µM,0.271
same,relative viability,BI-2536 + Tozasertib; first compound 0.1 µM,0.26
same,relative viability,BI-2536 + Tozasertib; first compound 0.3162 µM,0.253
same,relative viability,BI-2536 + Tozasertib; first compound 1 µM,0.26
same,relative viability,[1]; first compound 0.01 µM,0.857
same,relative viability,[1]; first compound 0.03162 µM,0.845
same,relative viability,[1]; first compound 0.1 µM,0.779
same,relative viability,[1]; first compound 0.3162 µM,0.764
same,relative viability,[1]; first compound 1 µM,0.951
same,relative viability,BI-2536 + Luminespib; first compound 0.01 µM,0.22
same,relative viability,BI-2536 + Luminespib; first compound 0.03162 µM,0.157
same,relative viability,BI-2536 + Luminespib; first compound 0.1 µM,0.137
same,relative viability,BI-2536 + Luminespib; first compound 0.3162 µM,0.122
same,relative viability,BI-2536 + Luminespib; first compound 1 µM,0.133
PC-14,relative viability,BI-2536 + Olaparib; first compound 0.01 µM,0.258
same,relative viability,BI-2536 + Olaparib; first compound 0.03162 µM,0.155
same,relative viability,BI-2536 + Olaparib; first compound 0.1 µM,0.0592
same,relative viability,BI-2536 + Olaparib; first compound 0.3162 µM,0.0538
same,relative viability,BI-2536 + Olaparib; first compound 1 µM,0.0392
same,relative viability,BI-2536 + Tozasertib; first compound 0.01 µM,0.577
same,relative viability,BI-2536 + Tozasertib; first compound 0.03162 µM,0.568
same,relative viability,BI-2536 + Tozasertib; first compound 0.1 µM,0.548
same,relative viability,BI-2536 + Tozasertib; first compound 0.3162 µM,0.045
same,relative viability,BI-2536 + Tozasertib; first compound 1 µM,0.0586
same,relative viability,[1]; first compound 0.01 µM,0.717
same,relative viability,[1]; first compound 0.03162 µM,0.73
same,relative viability,[1]; first compound 0.1 µM,0.684
same,relative viability,[1]; first compound 0.3162 µM,0.698
same,relative viability,[1]; first compound 1 µM,0.807
same,relative viability,BI-2536 + Luminespib; first compound 0.01 µM,0.116
same,relative viability,BI-2536 + Luminespib; first compound 0.03162 µM,0.171
same,relative viability,BI-2536 + Luminespib; first compound 0.1 µM,0.111
same,relative viability,BI-2536 + Luminespib; first compound 0.3162 µM,0.107
same,relative viability,BI-2536 + Luminespib; first compound 1 µM,0.108
NCI-H1915,relative viability,BI-2536 + Olaparib; first compound 0.01 µM,0.218
same,relative viability,BI-2536 + Olaparib; first compound 0.03162 µM,0.205
same,relative viability,BI-2536 + Olaparib; first compound 0.1 µM,0.163
same,relative viability,BI-2536 + Olaparib; first compound 0.3162 µM,0.0887
same,relative viability,BI-2536 + Olaparib; first compound 1 µM,0.0963
same,relative viability,BI-2536 + Tozasertib; first compound 0.01 µM,0.486
same,relative viability,BI-2536 + Tozasertib; first compound 0.03162 µM,0.292
same,relative viability,BI-2536 + Tozasertib; first compound 0.1 µM,0.232
same,relative viability,BI-2536 + Tozasertib; first compound 0.3162 µM,0.171
same,relative viability,BI-2536 + Tozasertib; first compound 1 µM,0.166
same,relative viability,[1]; first compound 0.01 µM,0.504
same,relative viability,[1]; first compound 0.03162 µM,0.537
same,relative viability,[1]; first compound 0.1 µM,0.483
same,relative viability,[1]; first compound 0.3162 µM,0.442
same,relative viability,[1]; first compound 1 µM,0.574
same,relative viability,BI-2536 + Luminespib; first compound 0.01 µM,0.848
same,relative viability,BI-2536 + Luminespib; first compound 0.03162 µM,0.379
same,relative viability,BI-2536 + Luminespib; first compound 0.1 µM,0.219
same,relative viability,BI-2536 + Luminespib; first compound 0.3162 µM,0.0675
same,relative viability,BI-2536 + Luminespib; first compound 1 µM,0.0811
NCI-H1666,relative viability,BI-2536 + Olaparib; first compound 0.01 µM,0.76
same,relative viability,BI-2536 + Olaparib; first compound 0.03162 µM,0.704
same,relative viability,BI-2536 + Olaparib; first compound 0.1 µM,0.671
same,relative viability,BI-2536 + Olaparib; first compound 0.3162 µM,0.545
same,relative viability,BI-2536 + Olaparib; first compound 1 µM,0.583
same,relative viability,BI-2536 + Tozasertib; first compound 0.01 µM,0.621
same,relative viability,BI-2536 + Tozasertib; first compound 0.03162 µM,0.52
same,relative viability,BI-2536 + Tozasertib; first compound 0.1 µM,0.415
same,relative viability,BI-2536 + Tozasertib; first compound 0.3162 µM,0.369
same,relative viability,BI-2536 + Tozasertib; first compound 1 µM,0.372
same,relative viability,[1]; first compound 0.01 µM,1.04
same,relative viability,[1]; first compound 0.03162 µM,0.996
same,relative viability,[1]; first compound 0.1 µM,0.983
same,relative viability,[1]; first compound 0.3162 µM,0.955
same,relative viability,[1]; first compound 1 µM,1.17
same,relative viability,BI-2536 + Luminespib; first compound 0.01 µM,1.01
same,relative viability,BI-2536 + Luminespib; first compound 0.03162 µM,0.933
same,relative viability,BI-2536 + Luminespib; first compound 0.1 µM,0.866
same,relative viability,BI-2536 + Luminespib; first compound 0.3162 µM,0.382
same,relative viability,BI-2536 + Luminespib; first compound 1 µM,0.34
